# Structures can show the parent of a compound that is named as a salt.
# Target: Sphingosine 1-phosphate receptor 1 (Homo sapiens, UniProt P21453)
# Experiment: S1P1 receptor agonists, dose response, cell-based, agonist mode, 60K MLSMR set (AID 468)
# Conditions: not given
# Chain of Sphingosine 1-phosphate receptor 1 (P21453 whole entry): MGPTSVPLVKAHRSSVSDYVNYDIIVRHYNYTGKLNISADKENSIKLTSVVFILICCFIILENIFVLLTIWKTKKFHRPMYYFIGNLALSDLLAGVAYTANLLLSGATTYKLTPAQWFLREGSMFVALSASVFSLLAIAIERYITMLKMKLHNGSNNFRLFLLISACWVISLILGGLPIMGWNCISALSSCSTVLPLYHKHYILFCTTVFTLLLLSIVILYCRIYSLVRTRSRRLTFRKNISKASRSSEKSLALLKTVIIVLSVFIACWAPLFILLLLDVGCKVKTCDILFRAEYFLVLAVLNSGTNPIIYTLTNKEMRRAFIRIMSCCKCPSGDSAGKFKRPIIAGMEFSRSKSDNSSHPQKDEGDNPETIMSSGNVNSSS
row,Structure (SMILES),EC50 [µM]
1,COC(=O)C1=CN(CCCN2CCCC2=O)C=C(C(=O)OC)C1c1ccccc1C(F)(F)F,> 95
2,Cn1ncnc2c(=O)n(C)c(=O)nc1-2,1.4
3,Oc1c(Cl)cc(Cl)cc1Sc1cc(Cl)cc(Cl)c1O,1.02
4,Cc1ccc2[nH]c3c(N4CCN(Cc5ccc6c(c5)OCO6)CC4)ncnc3c2c1,> 30
5,Fc1ccc2[nH]c3c(N4CCN(c5ccccc5)CC4)ncnc3c2c1,> 3
6,CC(C)OCCCNc1ncnc2c1[nH]c1ccc(F)cc12,4.41
7,c1ccc(CSc2nnc(-c3c[nH]c4ccccc34)o2)cc1,1.95
8,O=C(Cc1c[nH]c2ccccc12)N1CCc2ccccc21,9.43
9,CCCCOC(=O)c1[nH]c2c(c1C)C(=O)CC(c1cc(OC)c(OC)c(OC)c1)C2 (centres undefined),4.19
10,CCc1ccc(N(CC)c2ncnc3nc[nH]c23)cc1,6.03
11,Cc1ccc(-c2n[nH]c(=S)n2C)cc1,> 95
12,Clc1ccc(NCn2cncn2)nc1,> 95
13,CCc1oc2ccccc2c1C(=O)c1cc(Br)c(O)c(Br)c1,5.94
14,"CC1=NC(=O)NC(c2ccc(Cl)cc2)C1C(=O)OCc1ccc2c(c1)OCO2 (centres undefined) [1,3-benzodioxol-5-ylmethyl 4-(4-chlorophenyl)-6-methyl-2-oxidanylidene-3,4-dihydro-1H-pyrimidine-5-carboxylate]",> 0.03
15,"CC1=NC(=O)NC(c2ccc(F)cc2)C1C(=O)OCc1ccc2c(c1)OCO2 (centres undefined) [1,3-benzodioxol-5-ylmethyl 4-(4-fluorophenyl)-6-methyl-2-oxidanylidene-3,4-dihydro-1H-pyrimidine-5-carboxylate]",0.437
16,"CC1=NC(=O)NC(c2ccccc2)C1C(=O)OCc1ccc2c(c1)OCO2 (centres undefined) [1,3-benzodioxol-5-ylmethyl 6-methyl-2-oxidanylidene-4-phenyl-3,4-dihydro-1H-pyrimidine-5-carboxylate]",1.84
17,"O=C(Nc1ccc(OC(F)F)c(Cl)c1)Nc1ccc2c(c1)OCO2 [1-(1,3-benzodioxol-5-yl)-3-[3-chloro-4-(difluoromethoxy)phenyl]urea]",7.77
18,"C=CCn1c(C)cc(C(=O)CSc2nc3ccccc3o2)c1C [1-(1-allyl-2,5-dimethyl-pyrrol-3-yl)-2-(1,3-benzoxazol-2-ylthio)ethanone]",9.52
19,"COc1ccc(-n2c(O)cc(Sc3nnc[nH]3)c2O)c(OC)c1 [1-(2,4-dimethoxyphenyl)-3-(1H-1,2,4-triazol-5-ylthio)pyrrolidine-2,5-dione]",16.7
20,"CCOc1ccc(S(=O)(=O)N2CCN(c3ccc(C)cc3C)CC2)cc1 [1-(2,4-dimethylphenyl)-4-(4-ethoxyphenyl)sulfonyl-piperazine]",> 10
21,"COc1cc(-c2noc(C3CCCN(S(=O)(=O)c4cccc(Cl)c4)C3)n2)cc(OC)c1OC (centres undefined) [1-(3-Chloro-benzenesulfonyl)-3-[3-(3,4,5-trimethoxy-phenyl)-[1,2,4]oxadiazol-5-yl]-piperidine]",3.83
22,"CCOc1ccc(S(=O)(=O)n2cnc3cc(C)c(C)cc32)cc1 [1-(4-Ethoxy-benzenesulfonyl)-5,6-dimethyl-1H-benzoimidazole]",6.73
23,Cc1cccc(NC(=O)Nc2ccc(C#N)cc2)n1 [1-(4-cyanophenyl)-3-(6-methyl-2-pyridinyl)urea],> 30
24,"OC1(c2cccc(C(F)(F)F)c2)CCN(c2ncnc3c2[nH]c2ccc(F)cc23)CC1 [1-(8-fluoranyl-5H-pyrimido[5,4-b]indol-4-yl)-4-[3-(trifluoromethyl)phenyl]piperidin-4-ol]",3.91

# The remaining lines, values ahead:
row,EC50 [µM],Structure (SMILES)
1,6.14,c1ccc2c(c1)oc1c(N3CCN(Cc4ccc5c(c4)OCO5)CC3)ncnc12
2,> 95,CCC(NC(=O)Nc1nnc(C(F)(F)F)s1)(C(F)(F)F)C(F)(F)F
3,12,Oc1ccc(-c2nc(-c3ccc(O)c(O)c3)cs2)cc1
4,5.9,CCC1CCCCN1C(=O)CSc1nnc(-c2c[nH]c3ccccc23)o1 (centres undefined)
5,7.07,O=C(CSc1nnc(-c2c[nH]c3ccccc23)o1)N1c2ccccc2CCc2ccccc21
6,0.857,O=C(Nc1ccc(N2CCCCC2)c(Cl)c1)c1nnc[nH]1
7,4.51,COc1ccc2[nH]c(=O)c3c(c2c1)OC(C)(C)C=C3
8,1.02,O=C(CSc1nnc(-c2c[nH]c3ccccc23)o1)N(Cc1ccccc1)c1ccc(F)cc1
9,5.27,Cc1cc(C(=O)CSc2nnc(-c3ccccc3)n2-c2ccccc2)c(C)n1-c1nnc[nH]1
10,8.79,CN1/C(=C/C(=O)c2nc(S(C)(=O)=O)ncc2Cl)C(C)(C)c2ccccc21
11,> 3,CCOC(=O)/C=C/S(=O)(=O)c1ccc(NC(C)=O)cc1
12,5.16,"Cc1cccc(-c2nc(CSCC(=O)N3CCN(Cc4ccc5c(c4)OCO5)CC3)c(C)o2)c1 [1-(1,3-benzodioxol-5-ylmethyl)-4-[({[5-methyl-2-(3-methylphenyl)-1,3-oxazol-4-yl]methyl}thio)acetyl]piperazine]"
13,0.415,"Cc1nn(-c2nc3ccccc3s2)c(N)c1-c1ccccc1 [1-(1,3-benzothiazol-2-yl)-3-methyl-4-phenyl-1H-pyrazol-5-amine]"
14,10.5,"O=C(CCN1CCc2ccccc2CC1)c1ccc2c(c1)OCCO2 [1-(2,3-dihydro-1,4-benzodioxin-6-yl)-3-(1,2,4,5-tetrahydro-3-benzazepin-3-yl)-1-propanone;hydrochloride]"
15,4.2,"O=S(=O)(c1cccs1)N1CCN(CC(O)COc2cc(Cl)ccc2Cl)CC1 (centres undefined) [1-(2,5-dichlorophenoxy)-3-(4-thiophen-2-ylsulfonyl-1-piperazinyl)-2-propanol]"
16,4.66,"Cc1cc(C(=O)CSc2nnc(-c3cccs3)o2)c(C)n1-c1ccccc1 [1-(2,5-dimethyl-1-phenyl-3-pyrrolyl)-2-[(5-thiophen-2-yl-1,3,4-oxadiazol-2-yl)thio]ethanone]"
17,5.91,"Cc1cc(C(=O)CSc2nnnn2-c2ccc(O)cc2)c(C)n1Cc1ccc2c(c1)OCO2 [1-(2,5-dimethyl-1-piperonyl-pyrrol-3-yl)-2-[[1-(4-hydroxyphenyl)tetrazol-5-yl]thio]ethanone]"
18,7.29,COc1ccccc1N=C(N)Nc1nc(CSc2ccc(C)cc2)cc(=O)[nH]1 [1-(2-methoxyphenyl)-2-[6-[[(4-methylphenyl)thio]methyl]-4-oxo-1H-pyrimidin-2-yl]guanidine]
19,4.47,"Cc1occc1C(=O)N1CCN(c2ccc(Cl)c(Cl)c2)CC1 [1-(3,4-dichlorophenyl)-4-(2-methyl-3-furoyl)piperazine]"
20,6.58,"COc1ccc(S(=O)(=O)N2CCN(c3ccc(C)cc3C)CC2)cc1OC [1-(3,4-dimethoxyphenyl)sulfonyl-4-(2,4-dimethylphenyl)piperazine]"
21,22.5,COc1ccc(C(=O)C(CN2CCOCC2)c2ccccc2)cc1F (centres undefined) [1-(3-Fluoro-4-methoxy-phenyl)-3-morpholin-4-yl-2-phenyl-propan-1-one]
22,8.72,"COc1cccc(NC(=O)Nc2nnc(N3CCCCC3C)s2)c1 (centres undefined) [1-(3-methoxyphenyl)-3-[5-(2-methyl-1-piperidinyl)-1,3,4-thiadiazol-2-yl]urea]"
23,2.82,CCCS(=O)(=O)c1nnnn1-c1cccc(OC)c1 [1-(3-methoxyphenyl)-5-(propylsulfonyl)-1H-tetrazole]
24,9.38,N#Cc1ccc(NC(=O)Nc2ccc(Cl)cc2)cc1 [1-(4-chlorophenyl)-3-(4-cyanophenyl)urea]
25,17.9,O=C(c1ccc(F)cc1)C(CN1CCOCC1)c1ccccc1 (centres undefined) [1-(4-fluorophenyl)-3-(4-morpholinyl)-2-phenyl-1-propanone;hydrochloride]
26,2.26,"COc1cc(CSc2nnnn2-c2ccc(C)cc2)cc(OC)c1OC [1-(4-methylphenyl)-5-[(3,4,5-trimethoxybenzyl)thio]-1H-tetrazole]"
27,> 95,"CCOC(=O)C1CCN(c2ncnc3c2oc2ccc(Cl)cc23)CC1 [1-(8-chloro-4-benzofuro[3,2-d]pyrimidinyl)-4-piperidinecarboxylic acid ethyl ester]"

# Same assay, conditions: inactive by the depositor's call
row,Structure (SMILES),EC50 [µM]
1,CC1=CC(C)(C)Nc2ccc(OC(=O)c3ccco3)cc21,13.3
2,CC(C)C(c1nnnn1Cc1ccccc1)N(Cc1ccco1)Cc1cccs1 (centres undefined) [1-(1-benzyltetrazol-5-yl)-N-(furan-2-ylmethyl)-2-methyl-N-(thiophen-2-ylmethyl)propan-1-amine],51.2
3,"CC1CCCC(C)N1C(=O)CN1CCN(c2nc(-c3ccc(F)cc3)cs2)CC1 (centres undefined) [1-(2,6-Dimethyl-piperidin-1-yl)-2-{4-[4-(4-fluoro-phenyl)-thiazol-2-yl]-piperazin-1-yl}-ethanone]",12.7
4,CC(C)Cn1c(=O)c(C(=O)Nc2ccccc2S(N)(=O)=O)c(O)c2ccccc21 [1-(2-methylpropyl)-2-oxidanyl-4-oxidanylidene-N-(2-sulfamoylphenyl)quinoline-3-carboxamide],13.4
5,CCCCOc1ccc(S(=O)(=O)n2c(C)nc3ccccc32)cc1 [1-(4-butoxyphenyl)sulfonyl-2-methyl-benzimidazole],23.2

# Results, then the molecule that gave them:
row,EC50 [µM],Structure (SMILES)
1,20.6,O=S1(=O)C=C(Sc2nnc(-c3ccccc3)o2)c2ccccc21
2,13.8,Cc1n[nH]c(C)c1N1C(=O)c2cccc3c(N4CCCCCC4)ccc(c23)C1=O
3,13.1,"CN1c2ccccc2C(C)(C)C12C=Cc1cc(O)ccc1O2 (centres undefined) [1',3',3'-trimethyl-6-spiro[1-benzopyran-2,2'-indole]ol]"
4,11,"Cc1ccc(-n2ncc3c(N4CCCC(C)C4)ncnc32)c(C)c1 (centres undefined) [1-(2,4-dimethylphenyl)-4-(3-methylpiperidin-1-yl)-1H-pyrazolo[3,4-d]pyrimidine]"
5,12.8,"Cc1ccc(C)c(-n2nnnc2Sc2nnnn2-c2ccccc2)c1 [1-(2,5-dimethylphenyl)-5-(1-phenyltetrazol-5-yl)sulfanyltetrazole]"
6,31.7,"CCN(CC)C(=O)C1CCN(S(=O)(=O)c2ccc3oc4ccccc4c3c2)CC1 [1-(2-dibenzofuranylsulfonyl)-N,N-diethyl-4-piperidinecarboxamide]"
7,20,"O=C1CC(N2CCN(C/C=C/c3ccccc3)CC2)C(=O)N1CCc1ccccc1 (centres undefined) [1-(2-phenylethyl)-3-[4-[(E)-3-phenylprop-2-enyl]-1-piperazinyl]pyrrolidine-2,5-dione]"
8,12,"CCOC(=O)C1CCN(c2ncnc3c2oc2ccccc23)CC1 [1-(4-benzofuro[3,2-d]pyrimidinyl)-4-piperidinecarboxylic acid ethyl ester]"
